Five compounds from patent publication US20240228512A1, “ACYCLIC OXAZEPINE COMPOUNDS COMPRISING A 6-AZA MOIETY AND USES THEREOF” (Genentech, Inc., priority 2022, published 2024) can be followed below.

Experiment [1] deals with recombinant human KRAS wild type (SOS1-mediated nucleotide exchange) (Homo sapiens (Human), UniProt P01116). Nature of the experiment: KRAS biochemical assay, BODIPY-GDP exchange TR-FRET (WT-GDP HTRF). A general note: In TR-FRET formats the signal depends on donor and acceptor labels being close together.
Experiment [2] deals with recombinant human mutant KRas G12V (SOS1-mediated nucleotide exchange) (Homo sapiens (Human), UniProt P01116, G12V). Nature of the experiment: KRAS biochemical assay, BODIPY-GDP exchange TR-FRET (G12V-GDP HTRF).
The subject of a further experiment is SW620 cells. As to the kind of experiment: SW620 3D proliferation assay (CellTiter-Glo). Format: cell-based. The following applies: Homo sapiens, SW-620, 168 h, SW620, 3D culture, 7 days, read-out: SW620 CTG IC50. Put shortly:
(§1)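 Cells were seeded in ultra-low attachment plates (3000 or 1000 cells/well for 96- or 384-well format) in RPMI-1640, 10% FBS, 2 mM L-glutamine and cultured overnight at 37 °C/5% CO2 to form spheroids. Compounds were added by 333-fold dilution from DMSO for 7 days. Viability was read as CellTiter-Glo 3D ATP luminescence, with IC50 from a 4-parameter logistic fit.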
In general terms: ATP-based viability assays read luminescence as a measure of living cells.

For another experiment, the system named is H1975 cells. As to the kind of experiment: H1975 CTG proliferation assay. The following applies: Homo sapiens, NCI-H1975, H1975, CTG. Format: cell-based.
Another experiment relates to HPAC cells. Nature of the experiment: HPAC 3D proliferation assay (CellTiter-Glo). Format: cell-based. The following applies: Homo sapiens, 168 h, 3D culture, 7 days, read-out: HPAC CTG IC50. Put shortly:
as §1

For the next experiment, the system named is SW480 cells. As to the kind of experiment: SW480 CTG proliferation assay. The following applies: Homo sapiens. The format is cell-based.
The subject of the next experiment is SW620 PERK. Nature of the experiment: SW620 PERK assay. The format is cell-based. The following applies: Homo sapiens, SW-620, SW620, PERK.

Chain of recombinant human mutant KRas G12V (SOS1-mediated nucleotide exchange) (P01116-2 other isoform, or with tags, fused parts or gaps G12V): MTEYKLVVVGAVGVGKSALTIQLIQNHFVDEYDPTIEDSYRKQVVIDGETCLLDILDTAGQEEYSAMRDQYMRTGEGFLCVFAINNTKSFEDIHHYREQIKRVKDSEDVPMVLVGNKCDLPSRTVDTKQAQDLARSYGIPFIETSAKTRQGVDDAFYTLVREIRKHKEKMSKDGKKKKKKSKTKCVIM
Chain of recombinant human KRAS wild type (SOS1-mediated nucleotide exchange) (P01116-2 other isoform, or with tags, fused parts or gaps): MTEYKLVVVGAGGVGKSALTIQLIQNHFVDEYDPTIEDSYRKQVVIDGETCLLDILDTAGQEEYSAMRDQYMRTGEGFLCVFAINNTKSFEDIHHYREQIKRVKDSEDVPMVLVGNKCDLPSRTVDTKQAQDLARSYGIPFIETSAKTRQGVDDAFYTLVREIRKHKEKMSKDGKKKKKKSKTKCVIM

On to `Cc1c(F)c(N)nc(-c2nc3c4c(nc(OC[C@@]56CCCN5C[C@H](F)C6)nc4c2F)N([C@H](C)c2cccnc2N)CCO3)c1C(F)(F)F` [Example 604, 6-(10-((R)-1-(2-aminopyridin-3-yl)ethyl)-4-fluoro-2-(((2R,7aS)-2-fluorotetrahydro-1H-pyrrolizin-7a(5H)-yl)methoxy)-9,10-dihydro-8H-7-oxa-1,3,6,10-tetraazacyclohepta[de]naphthalen-5-yl)-3-fluoro-4-methyl-5-(trifluoromethyl)pyridin-2-amine], for which the concentration for half-maximal inhibition (IC50) in experiment [1] was 0.225 nM; in experiment [2], 0.099 nM; in the experiment with SW620 cells, 5.33 nM; with H1975 cells it was 283 nM; in the experiment with HPAC cells it was 26.5 nM; in the experiment on SW480 cells, more than 200 nM. It took 2.93 nM to reach half-maximal inhibition in the experiment with SW620 PERK (IC50).

For the compound `Cc1cc(N)c(F)c(-c2nc3c4c(nc(OC[C@@]56CCCN5C[C@]5(CC5(F)F)C6)nc4c2F)N([C@H](C)c2nccnc2N)CCO3)c1C(F)(F)F` [Example 609], the IC50 came out at 0.415 nM in experiment [1]; 0.21 nM in experiment [2]; 5.72 nM in the experiment on SW620 cells; 14500 nM with H1975 cells; 34 nM with HPAC cells; 58 nM in the experiment with SW480 cells. This compound also gave an IC50 in the experiment with SW620 PERK of 5.62 nM.

For `Cc1nc(N)cc(-c2nc3c4c(nc(OC[C@@]56CCCN5C[C@]5(CC5(F)F)C6)nc4c2F)N([C@H](C)c2cccnc2N)CCO3)c1C(F)(F)F` [Example 615], the IC50 in experiment [1] was found to be 0.175 nM; in experiment [2] it was 0.14 nM; in the experiment with SW620 cells, 1.92 nM; with H1975 cells it was 951 nM; in the experiment with HPAC cells, 12.3 nM; in the experiment with SW480 cells, 18 nM. In the experiment with SW620 PERK, this compound registered an IC50 of 2.02 nM.

Turning to `Cc1c(F)c(N)cc(-c2nc3c4c(nc(OC[C@@]56CCCN5C[C@]5(CC5(F)F)C6)nc4c2F)N([C@H](C)c2cncnc2N)CCO3)c1C(F)(F)F` [Example 616], the IC50 in experiment [1] was 0.195 nM; in experiment [2] it was 0.09 nM; in the experiment with SW620 cells, 8.46 nM; in the experiment with H1975 cells, 2.59 nM; in the experiment with HPAC cells, 50.4 nM; with SW480 cells, more than 200 nM. The compound also yielded an IC50 in the experiment on SW620 PERK of 4.64 nM.

`Cc1cc(N)nc(-c2nc3c4c(nc(OC[C@@]56CCCN5C[C@]5(CC5(F)F)C6)nc4c2F)N([C@H](C)c2cccnc2N)CCO3)c1C(F)(F)F` [Example 635]: the IC50 in experiment [1] was 0.325 nM; in experiment [2], 0.21 nM; in the experiment on SW620 cells it was 3.55 nM; in the experiment with H1975 cells, 2.54 nM; in the experiment on HPAC cells, 11.8 nM; with SW480 cells it was more than 200 nM. Besides, half-maximal inhibition with SW620 PERK (IC50) required 2.15 nM.

The IC50 is the point on the concentration scale where inhibition reaches its midpoint.
